Data as given in ChEMBL document CHEMBL1146834, “1-Azakenpaullone is a selective inhibitor of glycogen synthase kinase-3 beta” (Bioorg Med Chem Lett, 2004).

Key:
[1] = species on record: Homo sapiens; assay: Relative inhibition of human CDK-1 and GSK3-beta
[2] = molecular target: Cyclin-dependent kinase 5/CDK5 activator 1 (Homo sapiens, UniProt Q00535); assay: Inhibition of human Cyclin-dependent kinase 5-p35nck5a; type: protein-complex assay
[3] = molecular target: Cyclin-dependent kinase 1/cyclin B (Homo sapiens, UniProt P06493); assay: Inhibition of human cyclin-dependent kinase 1-cyclin B; type: protein-complex assay
[4] = molecular target: Glycogen synthase kinase-3 beta (Homo sapiens, UniProt P49841)
Chain of Glycogen synthase kinase-3 beta (P49841 whole entry): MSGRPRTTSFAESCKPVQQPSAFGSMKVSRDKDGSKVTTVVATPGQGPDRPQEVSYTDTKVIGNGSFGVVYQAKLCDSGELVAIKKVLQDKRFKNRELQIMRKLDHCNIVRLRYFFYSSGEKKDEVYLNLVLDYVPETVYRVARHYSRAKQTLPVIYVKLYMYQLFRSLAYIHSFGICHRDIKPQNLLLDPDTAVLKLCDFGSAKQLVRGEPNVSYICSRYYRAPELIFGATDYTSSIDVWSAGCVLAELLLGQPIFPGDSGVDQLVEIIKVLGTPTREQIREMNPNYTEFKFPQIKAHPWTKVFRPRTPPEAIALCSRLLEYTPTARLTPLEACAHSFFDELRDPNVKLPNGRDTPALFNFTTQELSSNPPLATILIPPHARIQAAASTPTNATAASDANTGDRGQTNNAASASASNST
Description: Inhibition of human glycogen synthase kinase-3 beta

Chain of Cyclin-dependent kinase 5/CDK5 activator 1 (Q00535 whole entry): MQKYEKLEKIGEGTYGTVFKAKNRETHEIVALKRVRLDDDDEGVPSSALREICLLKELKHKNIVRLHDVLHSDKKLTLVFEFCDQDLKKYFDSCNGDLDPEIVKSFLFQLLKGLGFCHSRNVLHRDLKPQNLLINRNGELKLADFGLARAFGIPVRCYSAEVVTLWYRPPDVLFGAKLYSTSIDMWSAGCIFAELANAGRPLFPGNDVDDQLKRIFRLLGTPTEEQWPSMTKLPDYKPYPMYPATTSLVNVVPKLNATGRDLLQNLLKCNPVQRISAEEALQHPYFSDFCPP
Chain of Cyclin-dependent kinase 5/CDK5 activator 1 (Q15078 whole entry, further chain): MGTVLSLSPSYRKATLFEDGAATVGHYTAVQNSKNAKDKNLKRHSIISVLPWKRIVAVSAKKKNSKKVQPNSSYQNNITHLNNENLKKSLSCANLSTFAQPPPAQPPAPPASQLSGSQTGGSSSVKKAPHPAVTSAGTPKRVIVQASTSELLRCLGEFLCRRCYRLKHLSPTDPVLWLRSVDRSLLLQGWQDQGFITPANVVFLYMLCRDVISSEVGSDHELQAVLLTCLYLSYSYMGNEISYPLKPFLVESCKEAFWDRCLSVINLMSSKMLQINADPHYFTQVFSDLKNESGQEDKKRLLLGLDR

| Structure (SMILES) | Selectivity index [1] | IC50 [2] | IC50 [3] | IC50 [4] |
| --- | --- | --- | --- | --- |
| CC(C)c1c(-c2ccc(Cl)cc2)[nH]c2nccnc12 | 1.1 | – | – | – |
| NC1=NC(=O)/C(=C2\CCNC(=O)c3[nH]c(Br)cc32)N1 [HYMENIALDISINE] | – | 28 nM | 22 nM | – |
| O=C1Cc2c([nH]c3ccc(Br)cc23)-c2ncccc2N1 [AZAKENPAULLONE] | – | – | 2000 nM | – |
| O=C1Cc2c([nH]c3ccc(Br)cc23)-c2cccnc2N1 | 1.4 | 12000 nM | 8400 nM | 6000 nM |
| O=Nc1c(-c2c(O)[nH]c3ccc(I)cc23)[nH]c2ccccc12 | – | 20 nM | 25 nM | – |
